Source: PubChem BioAssay (NCI)
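Results reflect a 48-hour exposure of cells in 96-well plates to compound at five concentrations. TGI is the concentration that stops growth completely.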

Columns and labels:
Test in all cases: growth of human tumour cells (NCI), 48 h
RPMI-8226 leukemia = test system: RPMI-8226 leukemia
SK-OV-3 ovarian = test system: SK-OV-3 ovarian
EKVX NSCLC = test system: EKVX NSCLC
TK-10 renal = test system: TK-10 renal
COLO 205 colon = test system: COLO 205 colon
BT-549 breast = test system: BT-549 breast
SK-MEL-28 melanoma = test system: SK-MEL-28 melanoma
M14 melanoma = test system: M14 melanoma
CCRF-CEM leukemia = test system: CCRF-CEM leukemia
MDA-MB-435 = test system: MDA-MB-435
NCI-H23 lung = test system: NCI-H23 lung
NCI/ADR-RES ovarian = test system: NCI/ADR-RES ovarian
OVCAR-4 ovarian = test system: OVCAR-4 ovarian
HCT-15 colon = test system: HCT-15 colon
UO-31 renal = test system: UO-31 renal
SF-539 CNS = test system: SF-539 CNS
MALME-3M melanoma = test system: MALME-3M melanoma
MCF7 breast = test system: MCF7 breast
SW-620 colon = test system: SW-620 colon
OVCAR-5 ovarian = test system: OVCAR-5 ovarian
MDA-N = test system: MDA-N
HL-60(TB) leukemia = test system: HL-60(TB) leukemia
SNB-19 CNS = test system: SNB-19 CNS
MOLT-4 leukemia = test system: MOLT-4 leukemia
NCI-H522 lung = test system: NCI-H522 lung
SK-MEL-2 melanoma = test system: SK-MEL-2 melanoma
SK-MEL-5 melanoma = test system: SK-MEL-5 melanoma
U251 CNS = test system: U251 CNS
NCI-H226 lung = test system: NCI-H226 lung
A549 NSCLC = test system: A549 NSCLC
T-47D breast = test system: T-47D breast
HCC-2998 colon = test system: HCC-2998 colon
SR leukemia = test system: SR leukemia
CAKI-1 renal = test system: CAKI-1 renal
SF-268 CNS = test system: SF-268 CNS
HS 578T breast = test system: HS 578T breast
OVCAR-8 ovarian = test system: OVCAR-8 ovarian
HT29 colon = test system: HT29 colon
NCI-H460 lung = test system: NCI-H460 lung
MDA-MB-231 breast = test system: MDA-MB-231 breast
DU-145 prostate = test system: DU-145 prostate
786-0 renal = test system: 786-0 renal
K-562 leukemia = test system: K-562 leukemia
SNB-75 CNS = test system: SNB-75 CNS
PC-3 prostate = test system: PC-3 prostate
HCT-116 colon = test system: HCT-116 colon
OVCAR-3 ovarian = test system: OVCAR-3 ovarian
UACC-62 melanoma = test system: UACC-62 melanoma
KM12 colon = test system: KM12 colon
RXF 393 renal = test system: RXF 393 renal
UACC-257 melanoma = test system: UACC-257 melanoma
SN12C renal = test system: SN12C renal
A498 renal = test system: A498 renal
LOX IMVI melanoma = test system: LOX IMVI melanoma
SF-295 CNS = test system: SF-295 CNS
ACHN renal = test system: ACHN renal
IGROV1 ovarian = test system: IGROV1 ovarian
HOP-62 NSCLC = test system: HOP-62 NSCLC

## CSC1=NN(c2ccccc2)C(=O)C1=C(SC)SC
RPMI-8226 leukemia
  TGI: 47 µM
SK-OV-3 ovarian
  TGI: > 100 µM
EKVX NSCLC
  TGI: > 100 µM
TK-10 renal
  TGI: 74.6 µM
COLO 205 colon
  TGI: 26 µM
BT-549 breast
  TGI: > 100 µM
SK-MEL-28 melanoma
  TGI: > 100 µM
M14 melanoma
  TGI: > 100 µM
CCRF-CEM leukemia
  TGI: > 100 µM
MDA-MB-435
  TGI: > 100 µM
NCI-H23 lung
  TGI: 55.7 µM
NCI/ADR-RES ovarian
  TGI: 49.2 µM
OVCAR-4 ovarian
  TGI: > 100 µM
HCT-15 colon
  TGI: 76 µM
UO-31 renal
  TGI: 37 µM
SF-539 CNS
  TGI: 70.3 µM
MALME-3M melanoma
  TGI: 39.6 µM
MCF7 breast
  TGI: 49.6 µM
SW-620 colon
  TGI: > 100 µM
OVCAR-5 ovarian
  TGI: > 100 µM
MDA-N
  TGI: > 100 µM
HL-60(TB) leukemia
  TGI: 51.8 µM
SNB-19 CNS
  TGI: 82 µM
MOLT-4 leukemia
  TGI: > 100 µM
NCI-H522 lung
  TGI: 25.5 µM
SK-MEL-2 melanoma
  TGI: 73.4 µM
SK-MEL-5 melanoma
  TGI: 29.8 µM
U251 CNS
  TGI: 87.6 µM
NCI-H226 lung
  TGI: 39.9 µM
A549 NSCLC
  TGI: 64.6 µM
T-47D breast
  TGI: 70.3 µM
HCC-2998 colon
  TGI: 91.7 µM
SR leukemia
  TGI: 83.7 µM
CAKI-1 renal
  TGI: 43.9 µM
SF-268 CNS
  TGI: > 100 µM
HS 578T breast
  TGI: > 100 µM
OVCAR-8 ovarian
  TGI: 65.9 µM
HT29 colon
  TGI: 43.5 µM
NCI-H460 lung
  TGI: 41.4 µM
MDA-MB-231 breast
  TGI: 53 µM
DU-145 prostate
  TGI: > 100 µM
786-0 renal
  TGI: > 100 µM
K-562 leukemia
  TGI: 45.9 µM
SNB-75 CNS
  TGI: 94.3 µM
PC-3 prostate
  TGI: 47 µM
HCT-116 colon
  TGI: 53.8 µM
OVCAR-3 ovarian
  TGI: > 100 µM
UACC-62 melanoma
  TGI: 66.7 µM
KM12 colon
  TGI: > 100 µM
RXF 393 renal
  TGI: 62.7 µM
UACC-257 melanoma
  TGI: 46.7 µM
SN12C renal
  TGI: 97.8 µM
A498 renal
  TGI: 35.4 µM
LOX IMVI melanoma
  TGI: 66.1 µM

## CC(C)c1cc(Cl)nc(Cl)n1
RPMI-8226 leukemia
  TGI: > 100 µM
SK-OV-3 ovarian
  TGI: > 100 µM
EKVX NSCLC
  TGI: > 100 µM
TK-10 renal
  TGI: > 100 µM
COLO 205 colon
  TGI: > 100 µM
BT-549 breast
  TGI: > 100 µM
SF-295 CNS
  TGI: > 100 µM
SK-MEL-28 melanoma
  TGI: > 100 µM
M14 melanoma
  TGI: > 100 µM
CCRF-CEM leukemia
  TGI: > 100 µM
MDA-MB-435
  TGI: > 100 µM
NCI-H23 lung
  TGI: > 100 µM
NCI/ADR-RES ovarian
  TGI: > 100 µM
ACHN renal
  TGI: > 100 µM
OVCAR-4 ovarian
  TGI: > 100 µM
HCT-15 colon
  TGI: > 100 µM
UO-31 renal
  TGI: > 100 µM
SF-539 CNS
  TGI: > 100 µM
MCF7 breast
  TGI: > 100 µM
IGROV1 ovarian
  TGI: > 100 µM
SW-620 colon
  TGI: > 100 µM
OVCAR-5 ovarian
  TGI: > 100 µM
MDA-N
  TGI: > 100 µM
HL-60(TB) leukemia
  TGI: > 100 µM
SNB-19 CNS
  TGI: > 100 µM
MOLT-4 leukemia
  TGI: > 100 µM
NCI-H522 lung
  TGI: > 100 µM
SK-MEL-2 melanoma
  TGI: > 100 µM
SK-MEL-5 melanoma
  TGI: > 100 µM
U251 CNS
  TGI: > 100 µM
NCI-H226 lung
  TGI: > 100 µM
A549 NSCLC
  TGI: > 100 µM
T-47D breast
  TGI: > 100 µM
HCC-2998 colon
  TGI: > 100 µM
SR leukemia
  TGI: > 100 µM
CAKI-1 renal
  TGI: > 100 µM
SF-268 CNS
  TGI: > 100 µM
HS 578T breast
  TGI: > 100 µM
OVCAR-8 ovarian
  TGI: > 100 µM
HT29 colon
  TGI: > 100 µM
NCI-H460 lung
  TGI: > 100 µM
MDA-MB-231 breast
  TGI: > 100 µM
DU-145 prostate
  TGI: > 100 µM
786-0 renal
  TGI: > 100 µM
K-562 leukemia
  TGI: > 100 µM
SNB-75 CNS
  TGI: > 100 µM
PC-3 prostate
  TGI: > 100 µM
HCT-116 colon
  TGI: > 100 µM
OVCAR-3 ovarian
  TGI: > 100 µM
UACC-62 melanoma
  TGI: > 100 µM
KM12 colon
  TGI: > 100 µM
RXF 393 renal
  TGI: > 100 µM
UACC-257 melanoma
  TGI: > 100 µM
SN12C renal
  TGI: > 100 µM
A498 renal
  TGI: > 100 µM
LOX IMVI melanoma
  TGI: > 100 µM

## Cn1ncc2[nH]cnc2c1=S
RPMI-8226 leukemia
  TGI: > 100 µM
EKVX NSCLC
  TGI: > 100 µM
TK-10 renal
  TGI: > 100 µM
COLO 205 colon
  TGI: > 100 µM
BT-549 breast
  TGI: > 100 µM
SF-295 CNS
  TGI: > 100 µM
SK-MEL-28 melanoma
  TGI: > 100 µM
M14 melanoma
  TGI: > 100 µM
CCRF-CEM leukemia
  TGI: 66.8 µM
MDA-MB-435
  TGI: > 100 µM
NCI-H23 lung
  TGI: > 100 µM
NCI/ADR-RES ovarian
  TGI: > 100 µM
ACHN renal
  TGI: > 100 µM
HCT-15 colon
  TGI: > 100 µM
UO-31 renal
  TGI: > 100 µM
SF-539 CNS
  TGI: > 100 µM
HOP-62 NSCLC
  TGI: > 100 µM
MCF7 breast
  TGI: > 100 µM
IGROV1 ovarian
  TGI: > 100 µM
SW-620 colon
  TGI: > 100 µM
OVCAR-5 ovarian
  TGI: > 100 µM
MDA-N
  TGI: > 100 µM
HL-60(TB) leukemia
  TGI: 24.6 µM
SNB-19 CNS
  TGI: > 100 µM
MOLT-4 leukemia
  TGI: > 100 µM
SK-MEL-2 melanoma
  TGI: > 100 µM
SK-MEL-5 melanoma
  TGI: > 100 µM
U251 CNS
  TGI: > 100 µM
NCI-H226 lung
  TGI: > 100 µM
A549 NSCLC
  TGI: > 100 µM
T-47D breast
  TGI: > 100 µM
SR leukemia
  TGI: > 100 µM
CAKI-1 renal
  TGI: > 100 µM
SF-268 CNS
  TGI: > 100 µM
HS 578T breast
  TGI: > 100 µM
OVCAR-8 ovarian
  TGI: > 100 µM
HT29 colon
  TGI: > 100 µM
NCI-H460 lung
  TGI: > 100 µM
MDA-MB-231 breast
  TGI: > 100 µM
DU-145 prostate
  TGI: > 100 µM
786-0 renal
  TGI: > 100 µM
K-562 leukemia
  TGI: > 100 µM
SNB-75 CNS
  TGI: > 100 µM
PC-3 prostate
  TGI: > 100 µM
HCT-116 colon
  TGI: > 100 µM
OVCAR-3 ovarian
  TGI: > 100 µM
UACC-62 melanoma
  TGI: > 100 µM
KM12 colon
  TGI: > 100 µM
RXF 393 renal
  TGI: > 100 µM
UACC-257 melanoma
  TGI: > 100 µM
SN12C renal
  TGI: > 100 µM
A498 renal
  TGI: > 100 µM
